Test [1] concerns leukotriene pathway in human whole blood (LTB4 levels). The experiment in a line: Human whole blood assay (A23187-stimulated LTB4). Type of test: cell-based. To be noted: Homo sapiens, human whole blood diluted 1:1, A23187-stimulated; read-out: LTB4 IC50 1:1. A digest of the protocol:
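Heparinised human whole blood, diluted 1:1 in RPMI, was pre-incubated with test compounds for 15 min at 37° Celsius, then stimulated with A23187 (7 μg/mL) for 30 min at 37° Celsius. Plasma LTB4 was measured by immunoassay kit; IC50 from 4-parameter fit; single replicate, at least one healthy donor.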

For the next test, the target named is human FLAP (Homo sapiens (Human), UniProt P20292). Briefly: FLAP binding assay (HTRF format). A digest of the protocol:
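Samples were run in duplicate on each of two assay plates, the results were averaged, and the signal was expressed as an HTRF ratio.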

The mark [2] stands for this setting: read-out: FLAP Binding wild type HTRF Ki.

Counter-ions that a name gives are not always drawn. Like-named read-outs stand apart in the source and are kept apart here. Some results are limits rather than exact numbers.

human FLAP, sequence (P20292 whole entry): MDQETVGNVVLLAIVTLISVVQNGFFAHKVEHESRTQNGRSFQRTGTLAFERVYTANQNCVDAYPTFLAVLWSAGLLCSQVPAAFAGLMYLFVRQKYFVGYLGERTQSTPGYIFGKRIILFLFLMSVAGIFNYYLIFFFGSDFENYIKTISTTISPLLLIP

As to `Nc1cnc(-c2ccc(-c3cccnc3S(=O)(=O)CCN3CCOCC3)cc2F)cn1` [Example 822, 5-(2-Fluoro-4-(2-((2-morpholinoethyl)sulfonyl)pyridine-3-yl)phenyl)pyrazin-2-amine], the IC50 (commonly the concentration that gives 50% inhibition) in test [1] was found to be 99.1 nM. At human FLAP (wild type FLAP, HTRF format), the Ki (usually the equilibrium dissociation constant of an inhibitor or competing ligand from its target) is 280 nM.

For `Nc1ncc(-c2ccc(-c3cccnc3S(=O)(=O)CC3CCOCC3)cc2F)cn1` [Example 823, 5-(2-Fluoro-4-(2-(((tetrahydro-2H-pyran-4-yl)methyl)sulfonyl)pyridine-3-yl)pyrimidin-2-amine formic acid salt], the IC50 in test [1] worked out at 95.1 nM. On human FLAP (wild type FLAP, HTRF format), this compound registered a Ki of 192 nM.

In the case of `Nc1cnc(-c2ccc(-c3cccnc3S(=O)(=O)CC3CCOCC3)cc2F)cn1` [Example 824, 5-(2-Fluoro-4-(2-(((tetrahydro-2H-pyran-4-yl)methyl)sulfonyl)pyridine-3-yl)pyrazin-2-amine formic acid salt], the IC50 in test [1] was determined as 18 nM. This compound had an inhibitory constant (Ki) at human FLAP (wild type FLAP, HTRF format) of 10.3 nM.

Take `CC(C)S(=O)(=O)c1ncccc1-c1ccc(-c2cnc(N)nc2)c(F)c1` [Example 825, 5-(2-Fluoro-4-{2-[(1-methylethyl)sulfonyl]pyridin-3-yl}phenyl)pyrimidin-2-amine]: the IC50 in test [1] was 122 nM. The Ki at human FLAP (wild type FLAP, HTRF format) is 273 nM.

Take `CC(C)S(=O)(=O)c1ncccc1-c1ccc(-c2cnc3[nH]ccc3c2)c(F)c1` [Example 826, 5-(2-Fluoro-4-(2-(isopropylsulfonyl)pyridine-3-yl)phenyl)-1H-pyrrolo[2,3-b]pyridine]: in test [1], the IC50 came out at 19.9 nM. This compound came in with a Ki at human FLAP (wild type FLAP, HTRF format) of 0.7 nM.

Regarding `Nc1ncc(-c2ccc(-c3cccnc3S(=O)(=O)C3CC3)cc2F)cn1` [Example 828, 5-{4-[2-(Cyclopropylsulfonyl)pyridin-3-yl]-2-fluorophenyl}pyrimidin-2-amine formic acid salt], in test [1], the IC50 was 260 nM. For the same compound, the Ki at human FLAP (setting [2]) amounted to 115 nM.

On to `Nc1cnc(-c2ccc(-c3cccnc3S(=O)(=O)C3CC3)cc2F)cn1` [Example 829, 5-{4-[2-(Cyclopropylsulfonyl)pyridin-3-yl]-2-fluorophenyl}pyrazin-2-amine formic acid salt], for which the IC50 in test [1] stood at 5.96 nM. On human FLAP (wild type FLAP, HTRF format), affinity was put at a Ki of 3.2 nM.

For the compound `Nc1cnc(-c2ccc(-c3cccnc3S(=O)(=O)C3CCOCC3)cc2F)cn1` [Example 830, 5-{2-Fluoro-4-[2-(tetrahydro-2H-pyran-4-ylsulfonyl)pyridin-3-yl]phenyl}pyrazin-2-amine hydrochloride], the IC50 in test [1] was 5.55 nM. The compound also had a Ki on human FLAP (wild type FLAP, HTRF format) of 2.9 nM.

As to `Nc1ncc(-c2ccc(-c3cccnc3S(=O)(=O)C3CCOCC3)cc2F)cn1` [Example 831, 5-{2-Fluoro-4-[2-(tetrahydro-2H-pyran-4-ylsulfonyl)pyridin-3-yl]phenyl}pyrimidin-2-amine formic acid salt], the IC50 in test [1] is 79.2 nM. At human FLAP (setting [2]), the Ki worked out at 131 nM.

Consider `COc1c(-c2ccccc2)ccc(-c2cnc(N)cn2)c1F` [Example 834, 5-(3-Fluoro-2-methoxybiphenyl-4-yl)pyrazin-2-amine], for which the IC50 in test [1] was found to be 1090 nM. On human FLAP (wild type FLAP, HTRF format), this compound came in with a Ki of 48.9 nM.

Take `COc1c(-c2ccccc2S(C)(=O)=O)ccc(-c2cnc(N)cn2)c1F` [Example 835, 5-[3-Fluoro-2-methoxy-2′-(methylsulfonyl)biphenyl-4-yl]pyrazin-2-amine]: in test [1], the IC50 worked out at 417 nM. The Ki at human FLAP (wild type FLAP, HTRF format) is approximately 354 nM.

Take `COc1c(-c2ccccc2S(=O)(=O)NC(C)(C)C)ccc(-c2cnc(N)cn2)c1F` [Example 836, 4′-(5-Aminopyrazin-2-yl)-N-tert-butyl-3′-fluoro-2′-methoxybiphenyl-2-sulfonamide]: the IC50 in test [1] amounted to 595 nM. Besides, the affinity on human FLAP (wild type FLAP, HTRF format) corresponds to a Ki of 25.5 nM.

As for `Nc1cnc(-c2ccc(-c3ccccc3-c3cnccn3)cc2F)cn1` [Example 838, 5-(3-Fluoro-2′-(pyrazin-2-yl)-[1,1′-biphenyl]-4-yl)pyrazin-2-amine], the IC50 in test [1] turned out to be 350 nM. This compound had a Ki on human FLAP (wild type FLAP, HTRF format) of 28.6 nM.

As for `Nc1ncc(-c2ccc(-c3ccccc3-c3cnccn3)cc2F)cn1` [Example 839, 5-(3-Fluoro-2′-pyrazin-2-ylbiphenyl-4-yl)pyrimidin-2-amine], the IC50 in test [1] was 2790 nM. On human FLAP (wild type FLAP, HTRF format), this compound showed a Ki of 830 nM.

Turning to `Nc1cnc(-c2ccc(-c3ccccc3-c3cnc(N)cn3)cc2F)cn1` [Example 840, 5,5′-(3′-Fluorobiphenyl-2,4′-diyl)dipyrazin-2-amine], the IC50 in test [1] amounted to 99.6 nM. Besides, the Ki on human FLAP (wild type FLAP, HTRF format) amounted to 12.7 nM.

Take `Nc1cnc(-c2ccccc2-c2ccc(-c3cnc(N)nc3)c(F)c2)cn1` [Example 841, 5-[2′-(5-Aminopyrazin-2-yl)-3-fluorobiphenyl-4-yl]pyrimidin-2-amine]: the IC50 in test [1] stood at 370 nM. Besides, the Ki at human FLAP (wild type FLAP, HTRF format) was found to be 146 nM.

`Nc1cnc(-c2ccc(-c3ccccc3-c3cncc(N)n3)cc2F)cn1` [Example 842, 5-[2′-(6-Aminopyrazin-2-yl)-3-fluorobiphenyl-4-yl]pyrazin-2-amine]: the IC50 in test [1] is 61 nM. On human FLAP (wild type FLAP, HTRF format), affinity was put at a Ki of 5.3 nM.

Consider `Nc1cnc(-c2ccc(-c3ccccc3-c3cnc(N)nc3)cc2F)cn1` [Example 843, 5-[4′-(5-Aminopyrazin-2-yl)-3′-fluorobiphenyl-2-yl]pyrimidin-2-amine], for which the IC50 in test [1] worked out at 44.3 nM. On human FLAP (wild type FLAP, HTRF format), the Ki stood at 15.6 nM.

Regarding `Nc1ncc(-c2ccc(-c3ccccc3-c3cnc(N)nc3)cc2F)cn1` [Example 844, 5,5′-(3′-Fluorobiphenyl-2,4′-diyl)dipyrimidin-2-amine], the IC50 in test [1] amounted to 907 nM. Moreover, at human FLAP (wild type FLAP, HTRF format), the Ki worked out at 509 nM.

Turning to `COc1ncc(-c2ccccc2-c2ccc(-c3cnc(N)cn3)c(F)c2)cn1` [Example 846, 5-[3-Fluoro-2′-(2-methoxypyrimidin-5-yl)biphenyl-4-yl]pyrazin-2-amine], the IC50 in test [1] amounted to 41.8 nM. In addition, on human FLAP (wild type FLAP, HTRF format), the Ki was 10.5 nM.

Regarding `Cn1cc(-c2ccccc2-c2ccc(-c3cnc(N)cn3)c(F)c2)cn1` [Example 847, 5-[3-Fluoro-2′-(1-methyl-1H-pyrazol-4-yl)biphenyl-4-yl]pyrazin-2-amine], in test [1], the IC50 was found to be 99.1 nM. Besides, the affinity on human FLAP (wild type FLAP, HTRF format), expressed as Ki, was 8.1 nM.

In the case of `Nc1cnc(-c2ccc(-c3ccccc3-c3cncnc3)cc2F)cn1` [Example 848, 5-(3-Fluoro-2′-pyrimidin-5-ylbiphenyl-4-yl)pyrazin-2-amine], the IC50 in test [1] was 322 nM. In addition, affinity on human FLAP (wild type FLAP, HTRF format) was put at a Ki of 96.8 nM.

For the compound `N#Cc1ncc(-c2ccccc2-c2ccc(-c3cnc(N)cn3)c(F)c2)cn1` [Example 849, 5-[4′-(5-Aminopyrazin-2-yl)-3′-fluorobiphenyl-2-yl]pyrimidine-2-carbonitrile], the IC50 in test [1] is more than 1000 nM. Moreover, at human FLAP (wild type FLAP, HTRF format), the Ki worked out at 35.6 nM.

As for `Nc1cnc(-c2ccc(-c3ccccc3-c3cnc(N4CCOCC4)nc3)cc2F)cn1` [Example 850, 5-[3-Fluoro-2′-(2-morpholin-4-ylpyrimidin-5-yl)biphenyl-4-yl]pyrazin-2-amine], the IC50 in test [1] is 195 nM. At human FLAP (wild type FLAP, HTRF format), this compound yielded a Ki of 37.7 nM.

For `CC(C)(O)Cn1cc(-c2ccccc2-c2ccc(-c3cnc(N)cn3)c(F)c2)cn1` [Example 851, 1-{4-[4′-(5-Aminopyrazin-2-yl)-3′-fluorobiphenyl-2-yl]-1H-pyrazol-1-yl}-2-methylpropan-2-ol], in test [1], the IC50 amounted to 359 nM. For the same compound, the affinity on human FLAP (wild type FLAP, HTRF format), expressed as Ki, was 32.6 nM.

On to `Nc1cnc(-c2ccc(-c3ccc(C(F)(F)F)cc3C3=CCNCC3)cc2F)cn1` [Example 852, 5-[3-Fluoro-2′-(1,2,3,6-tetrahydropyridin-4-yl)-4′-(trifluoromethyl)biphenyl-4-yl]pyrazin-2-amine], for which the IC50 in test [1] is 1350 nM. Besides, the Ki on human FLAP (wild type FLAP, HTRF format) worked out at 118 nM.

Regarding `Nc1cnc(-c2ccc(-c3ccc(C(F)(F)F)cc3-c3cnc(N)nc3)cc2F)cn1` [Example 853, 5-[4′-(5-Aminopyrazin-2-yl)-3′-fluoro-4-(trifluoromethyl)biphenyl-2-yl]pyrimidin-2-amine], the IC50 in test [1] was found to be 45.6 nM. The compound further had a Ki at human FLAP (wild type FLAP, HTRF format) of 4.7 nM.

Turning to `Nc1cnc(-c2ccc(-c3ccccc3N3CCCS3(=O)=O)cc2F)cn1` [Example 856, 5-[2′-(1,1-Dioxidoisothiazolidin-2-yl)-3-fluorobiphenyl-4-yl]pyrazin-2-amine], the IC50 in test [1] was 83.9 nM. Further, the Ki at human FLAP (wild type FLAP, HTRF format) is 60.5 nM.

Turning to `Nc1cnc(-c2ccc(-c3ccccc3N3CCCCS3(=O)=O)cc2F)cn1` [Example 857, 5-[2′-(1,1-Dioxido-1,2-thiazinan-2-yl)-3-fluorobiphenyl-4-yl]pyrazin-2-amine], in test [1], the IC50 came out at 205 nM. Moreover, at human FLAP (wild type FLAP, HTRF format), the Ki turned out to be 28 nM.

As to `Nc1ncc(-c2ccc(-c3ccccc3N3CCCS3(=O)=O)cc2F)cn1` [Example 858, 5-[2′-(1,1-Dioxidoisothiazolidin-2-yl)-3-fluorobiphenyl-4-yl]pyrimidin-2-amine], in test [1], the IC50 worked out at 370 nM. For the same compound, the affinity at human FLAP (wild type FLAP, HTRF format), expressed as Ki, was 210 nM.

The record behind these values is patent publication US9079866B2, “Flap modulators” (JANSSEN PHARMACEUTICA NV, priority 2013, dated 2015).
